Here are results for three molecules from patent publication US12508300B2, “Acylated GLP-1 derivative” (Sciwind Biosciences Co., Ltd., priority 2019, dated 2025).

In experiment [1] the target is T1, GLP1R (Homo sapiens, UniProt P43220).
T1 construct: expressed in transfected cells; host or cells: HEK293
As to the kind of experiment: In vitro activity determination in HEK293/CRE-Luc/GLP1R cells (luciferase reporter). Type of experiment: cell-based. Here is the method: Based on the fact that GLP-1 may bind to the receptor on the cell membrane, the HEK293/CRE-Luc/GLPIR cell line is constructed, the CAMP response elements (CRE) are activated through a series of signal transduction, the expression of downstream luciferase is initiated, and the amount of its expression is positively correlated with the biological activity of GLP-1. After adding the luciferase substrate, the chemiluminescence assay is performed to determine the luminous intensity, thereby determining the biological activity of GLP-1.
96-well cell culture plate (white and opaque), DMEM medium (GIBCO), 0.05% TRYPSIN-EDTA (GIBCO), fetal bovine serum (GIBCO), G418, hygromycin B, Bright-Glo™ Luciferase Assay System Kit (Promega), and HEK293/CRE-luc/GLP1R cells.
(1) Cell preparation: the cells are cultured until they grow vigorously and reach a sufficient quantity, discarding the culture medium in the culture bottle, adding 3 ml of Versene solution and shaking once; then adding 2 ml of 0.05% TRYPSIN-EDTA digestion solution, covering the bottle and standing for 1 minute, and then adding 6 ml of the assay medium to quench the digestion; after centrifugation at 1000 r/min for 3 min, the supernatant is discarded, and the cells are resuspended in 5 ml of assay medium and counted on a hemacytometer. The cell density is adjusted to an appropriate range for later use by using DMEM assay medium.
(2) Sample preparation: the derivatives of different GLP-1 analogues in Table 1 are diluted to 20 ng/ml with the assay medium, then gradient diluted into 8 concentrations in 96-well plates, and using the assay medium instead of the sample as the cell blank control. 2 duplicate wells are made for each dilution concentration.
(3) Culturing with addition of the samples: the prepared solutions of the control and test samples are transferred to a 96-well cell culture plate (white board), adding 50 μl of the solution to each well; then adding the prepared cell suspension, adding 50 μl of the suspension to each well; and then incubating for a certain period of time under the conditions of 37° C. and 5% CO2.
(4) Chemiluminescence assay: substrate is added, then taking out the 96-well cell culture plate, adding 100 μl of Bright Glo reagent to each well, and leaving in the dark for 3 min.
(5) Reading: determination is performed with a chemiluminescence microplate reader SpectraMax L, then reading the plate within 30 min, and recording the determined results.
(A reporter such as luciferase makes a cellular process visible.)

Experiment [2] has as its system db/db mice. Description: Fasting blood glucose after single injection in type II diabetic db/db mice (FIG. 1). It is filed as in vivo. The following applies: 0.05 mg/kg s.c. single, day 2. Here is the method: The dosage is 0.05 mg/kg for each, and the administration time is set as 0 h. Fasting blood glucose is measured after fasting for 6-8 h every day, and the fasting blood glucose after administration is measured every day until the fasting blood glucose value of each animal of the test group recovers to the value measured before administration. The blood glucose value measured before administration is called the basal blood glucose value, and is set as 0. Change of the fasting blood glucose (Δ: delta)=Blood glucose value after administration-Basal blood glucose value before administration.

For experiment [3], the system named is RIN-m5F cells. Description: In vitro activity determination in RIN-m5F cells (cAMP assay kit). Type of experiment: cell-based. On the procedure:
RIN-m5F cells with good culturing status are selected. Cells are then collected, counted, and prepared into a cell suspension of 1×10^5 cells/ml with RPMI1640 basal medium. The cell suspension is inoculated in a 96-well cell culture plate, 100 μl per well, then incubating overnight at 37° C. and 5% CO2.
The prepared cell plate is taken out, then discarding the medium, and blotting it dry on the filter paper. The sample solutions are transferred correspondingly into the cell plate, 40 μl/well; treating with the lid open for 15 min at 37° C. and 5% CO2. The cell culture plate is taken out from the incubator, then adding 10 μl of CD solution (cAMP assay kit, Promega) to each well, keeping the cell plate at 22-25° C., and shaking horizontally at 500 rpm for 20 min. 50 μl of KG solution (cAMP assay kit, Promega) is added to each well, then shaking horizontally at 22° C.-25° C., 500 rpm and avoiding light for 10 min. The chemiluminescence value is read by using the Molecular Devices SpectraMax L chemiluminescence apparatus, completing the measurement in 30 min. EC50 of a sample is calculated by using the four-parameter regression in softmax Pro software.
(Changes in cAMP serve as a functional read-out for many G protein-coupled receptors.)

Experiment [4] concerns CD-1 mice. It is filed as in vivo. The following applies: 0.15 mg/kg s.c.; for Inhibition rate (blood glucose): Table 5 (second experiment), CD-1 mice; for glucose-lowing effects (comparison in words, Tables 4 and 5): normal mice. On the procedure: Twenty-eight healthy female CD-1 mice aged 4-6 weeks are selected and divided into 4 groups, and they are injected subcutaneously with M4, M5, M7 and M0 at a dose of 0.15 mg/kg body weight.

Experiment [5] has as its system ICR mice. Type of experiment: in vivo. Details: G-AUC: unit not given here. On the procedure:
20% glucose is intragastrically administered every day according to the time schedule of 4 h, 1 d, 2 d, 3 d, 4 d, and 5 d, at a dose of 2 g/kg body weight, and fasting for 6 hours before administering the glucose; and blood is respectively collected from the tip of the tail at 0 h, 0.5 h, 1 h and 2 h after giving the 20% glucose, then measuring the blood glucose value in real time by using Roche blood glucose test paper.

Like-named read-outs stand apart in the source and are kept apart here. *1 amine or outer side, *2 acyl side, *3 side chain or, on linkers, in order; H or OH if unused. Where a SMILES comes first, the peptide text is derived from it. Where no end group is shown, it is not given here. Side-chain parts run from the residue outwards. The star is where a group is joined. C18 diacid = O=C(O)CCCCCCCCCCCCCCCCC(=O)*; γGlu = O=C(O)[C@H](CCC(=O)[*:2])N[*:1]; AEEA = NCCOCCOCC(=O)O

T1 sequence (P43220 24-463, species assumed): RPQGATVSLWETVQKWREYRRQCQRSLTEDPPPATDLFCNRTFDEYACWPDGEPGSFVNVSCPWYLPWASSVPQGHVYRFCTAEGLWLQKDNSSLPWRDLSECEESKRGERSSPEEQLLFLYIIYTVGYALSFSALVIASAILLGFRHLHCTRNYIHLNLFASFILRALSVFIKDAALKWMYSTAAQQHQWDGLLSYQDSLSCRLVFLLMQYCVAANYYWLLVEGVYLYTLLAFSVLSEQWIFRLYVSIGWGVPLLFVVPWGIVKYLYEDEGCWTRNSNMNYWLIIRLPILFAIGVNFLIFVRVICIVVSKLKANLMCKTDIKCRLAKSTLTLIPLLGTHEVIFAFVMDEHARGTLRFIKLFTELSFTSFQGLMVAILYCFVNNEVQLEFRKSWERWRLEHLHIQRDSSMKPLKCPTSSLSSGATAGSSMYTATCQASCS

Consider `CC[C@H](C)[C@H](NC(=O)[C@H](Cc1ccccc1)NC(=O)[C@H](CCC(=O)O)NC(=O)[C@H](CCCNC(=N)N)NC(=O)[C@H](C)NC(=O)[C@H](C)NC(=O)[C@H](CCC(N)=O)NC(=O)[C@H](CCC(=O)O)NC(=O)[C@H](CCC(=O)O)NC(=O)[C@H](CC(C)C)NC(=O)[C@H](Cc1ccc(O)cc1)NC(=O)[C@H](CO)NC(=O)[C@H](CO)NC(=O)[C@@H](NC(=O)[C@H](CC(=O)O)NC(=O)[C@H](CO)NC(=O)[C@@H](NC(=O)[C@H](Cc1ccccc1)NC(=O)[C@@H](NC(=O)CNC(=O)[C@H](CCC(=O)O)NC(=O)[C@H](CO)NC(=O)[C@@H](N)Cc1c[nH]cn1)[C@@H](C)O)[C@@H](C)O)C(C)C)C(=O)N[C@@H](CCCCNC(=O)COCCOCCNC(=O)COCCOCCNC(=O)CC[C@H](NC(=O)CCCCCCCCCCCCCCCCC(=O)O)C(=O)O)C(=O)N[C@@H](Cc1c[nH]c2ccccc12)C(=O)N[C@@H](CC(C)C)C(=O)N[C@H](C(=O)N[C@@H](CCCNC(=N)N)C(=O)NCC(=O)N[C@@H](CCCNC(=N)N)C(=O)NCC(=O)O)C(C)C` [M17, N-ε^30-[2-(2-[2-(2-[2-(2-[4-(17-carboxyheptadecanoylamino)-4(s)-carboxybutyrylamino]ethoxy)ethoxy]acetylamino)ethoxy]ethoxy)acetyl](Ser^8Glu^22Lys^30Arg^26,34-GLP-1(7-37)) peptide] (H-HSEGTFTSDVSSYLEEQAAREFIK([AEEA-AEEA-γGlu-C18 diacid])WLVRGRG-OH; N-terminus and C-terminus assumed), for which, in experiment [1], the “in vitro activities (comparison in words)” value (“in vitro activities” below) is reported as “comparable”. In addition, the “glucose-lowing effect compared with Semaglutide (FIG. 1)” value in experiment [2] was “lower than that of Semaglutide”.
Consider “N-ε^34-[2-(2-[2-(2-[2-(2-[4-(17-carboxyheptadecanoylamino)-4(s)-carboxybutyrylamino]ethoxy)ethoxy]acetylamino)ethoxy]ethoxy)acetyl](Val^8Glu^22 Arg^26Lys^34-GLP-1(7-37)) peptide (HVEGTFTSDVSSYLEEQAAREFIAWLVK([AEEA-AEEA-γGlu-C18 diacid])GRG) [M5]”, for which, in experiment [3], the “in vitro activities” value is on record as “comparable”. For the same molecule, the “Inhibition rate (blood glucose)” value is 29.59% in experiment [4] (6 h); 39.47% in experiment [4] (30 h); 30.11% in experiment [4] (54 h); 27.07% in experiment [4] (78 h); 15.38% in experiment [4] (102 h); 29.59% in experiment [5] (0.15 mg/kg s.c. single, 4 h). Further, the “Inhibition rate (blood glucose)” value in experiment [5] (0.15 mg/kg s.c. single, 1 d) is on record as 39.47%; in experiment [5] (0.15 mg/kg s.c. single, 2 d), 30.11%; in experiment [5] (0.15 mg/kg s.c. single, 3 d), 27.07%; in experiment [5] (0.15 mg/kg s.c. single, 4 d) it was 15.38%; in experiment [5] (0.15 mg/kg s.c. single, 5 d), 11.66%. The “glucose-lowing effects (comparison in words, Tables 4 and 5)” value in experiment [4] is “comparable”. Moreover, the G-AUC was found to be 16.3 ± 2.5 in experiment [5] (0 h (before administration)); 11.5 ± 1.0 in experiment [5] (0.15 mg/kg s.c. single, 4 h); 9.9 ± 0.7 in experiment [5] (0.15 mg/kg s.c. single, 1 d); 11.4 ± 1.3 in experiment [5] (0.15 mg/kg s.c. single, 2 d); 11.9 ± 2.0 in experiment [5] (0.15 mg/kg s.c. single, 3 d); 13.8 ± 1.9 in experiment [5] (0.15 mg/kg s.c. single, 4 d). In experiment [5] (0.15 mg/kg s.c. single, 5 d), this molecule gave a G-AUC of 14.4 ± 2.2.
In the case of “N-ε^37-[2-(2-[2-(2-[2-(2-[4-(17-carboxyheptadecanoylamino)-4(s)-carboxybutyrylamino]ethoxy)ethoxy]acetylamino)ethoxy]ethoxy)acetyl](Val^8Glu^22Arg^26,34Lys^37-GLP-1 (7-37)) peptide (HVEGTFTSDVSSYLEEQAAREFIAWLVRGRK([AEEA-AEEA-γGlu-C18 diacid])) [M7]”, the “in vitro activities” value in experiment [3] is reported as “comparable”. Further, the “Inhibition rate (blood glucose)” value in experiment [4] (6 h) is 27.22%; in experiment [4] (30 h) it was 38.82%; in experiment [4] (54 h) it was 22.56%; in experiment [4] (78 h), 22.48%; in experiment [4] (102 h), 11.60%; in experiment [5] (0.15 mg/kg s.c. single, 4 h) it was 27.22%. Moreover, the “Inhibition rate (blood glucose)” value is 38.82% in experiment [5] (0.15 mg/kg s.c. single, 1 d); 22.56% in experiment [5] (0.15 mg/kg s.c. single, 2 d); 22.48% in experiment [5] (0.15 mg/kg s.c. single, 3 d); 11.60% in experiment [5] (0.15 mg/kg s.c. single, 4 d); 6.76% in experiment [5] (0.15 mg/kg s.c. single, 5 d). Besides, the “glucose-lowing effects (comparison in words, Tables 4 and 5)” value in experiment [4] is “comparable”. Besides, the G-AUC in experiment [5] (0 h (before administration)) amounted to 16.3 ± 2.7; in experiment [5] (0.15 mg/kg s.c. single, 4 h), 11.8 ± 1.4; in experiment [5] (0.15 mg/kg s.c. single, 1 d) it was 10.0 ± 1.6; in experiment [5] (0.15 mg/kg s.c. single, 2 d) it was 12.6 ± 1.5; in experiment [5] (0.15 mg/kg s.c. single, 3 d), 12.6 ± 0.7; in experiment [5] (0.15 mg/kg s.c. single, 4 d), 14.4 ± 1.1. The G-AUC in experiment [5] (0.15 mg/kg s.c. single, 5 d) is reported as 15.2 ± 1.0.
